Measured values as given in PMC5664379 (2017).

Tested on: G4 DNA [(CG3)2CGC(AG3)2G] (DNA, G4) CGGGCGGGCGCAGGGAGGGG
Assay: UV-vis mole-ratio titration, global fit
Details: buffer pH 7.1, 25 °C; intrinsic, two equivalent anticooperative sites, ω 0.43; stepwise fit equally good: 7.07, 5.79

## C[n+]1ccc(-c2c3nc(c(-c4cc[n+](C)cc4)c4ccc([nH]4)c(-c4cc[n+](C)cc4)c4nc(c(-c5cc[n+](C)cc5)c5ccc2[nH]5)C=C4)C=C3)cc1
  lg K1-2: 6.79
